Test results reported in ChEMBL document CHEMBL1201862, “PubChem BioAssay data set” (2004).
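Grown in 96-well plates, cells were treated for 48 hours with each compound at five concentrations. Insufficient inhibition: endpoint recorded as highest concentration tested. At the GI50, growth is halved.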 Calls of active or inactive are those of the source. Rule as the data show it: active = GI50 up to about 1.1 µM and inactive = higher.

Key:
Assay in all cases: NCI anticancer screen, dose series, 48 h
[1] = test system: 786-0
[2] = test system: A498
[3] = test system: A549
[4] = test system: ACHN
[5] = test system: BT-549
[6] = test system: CAKI-1
[7] = test system: CCRF-CEM
[8] = test system: DU-145
[9] = test system: EKVX
[10] = test system: HCC 2998
[11] = test system: HCT-116
[12] = test system: HCT-15
[13] = test system: HL-60
[14] = test system: HOP-62
[15] = test system: HOP-92
[16] = test system: HT-29
[17] = test system: Hs-578T
[18] = test system: IGROV-1
[19] = test system: K562
[20] = test system: KM12
[21] = test system: LOX IMVI
[22] = test system: M14
[23] = test system: MCF7
[24] = test system: MDA-MB-231
[25] = test system: MDA-MB-435
[26] = test system: MOLT-4
[27] = test system: Malme-3M
[28] = test system: NCI-H226
[29] = test system: NCI-H23
[30] = test system: NCI-H460
[31] = test system: NCI-H522
[32] = test system: NCI/ADR-RES
[33] = test system: OVCAR-3
[34] = test system: OVCAR-5
[35] = test system: OVCAR-8
[36] = test system: PC-3
[37] = test system: RPMI-8226
[38] = test system: RXF 393
[39] = test system: SF-268
[40] = test system: SF-295
[41] = test system: SF-539
[42] = test system: SK-MEL-28
[43] = test system: SK-MEL-5
[44] = test system: SN12C
[45] = test system: SNB-19
[46] = test system: SNB-75
[47] = test system: SR
[48] = test system: SW-620
[49] = test system: T47D
[50] = test system: TK-10
[51] = test system: U-251
[52] = test system: UACC-257
[53] = test system: UO-31
[54] = test system: COLO 205
[55] = test system: OVCAR-4
[56] = test system: SK-MEL-2
[57] = test system: SK-OV-3
[58] = test system: UACC-62

For CS(=O)(=O)CCC1CCC(=O)O1 (centres undefined), the GI50 [1] was > 100 µM (inactive), the GI50 [2] was > 100 µM (inactive) and the GI50 [3] was 43.6 µM (inactive). For the same molecule, the GI50 [4] was 31.5 µM (inactive), the GI50 [5] was 53 µM (inactive) and the GI50 [6] was > 100 µM (inactive). For the same molecule, the GI50 [7] was > 10 µM (inactive), the GI50 [8] was 96.8 µM (inactive) and the GI50 [9] was > 100 µM (inactive). The GI50 [10] was > 100 µM (inactive), the GI50 [11] was 48.6 µM (inactive) and the GI50 [12] was over 100 µM. For the same molecule, the GI50 [13] was > 100 µM (inactive), the GI50 [14] was 40.5 µM (inactive) and the GI50 [15] was > 100 µM (inactive). The GI50 [16] was > 100 µM (inactive), the GI50 [17] was 49 µM (inactive) and the GI50 [18] was > 100 µM (inactive). For the same molecule, the GI50 [19] was > 100 µM (inactive), the GI50 [20] was > 100 µM (inactive) and the GI50 [21] was 20.6 µM (inactive). For the same molecule, the GI50 [22] was > 100 µM (inactive), the GI50 [23] was 58.9 µM (inactive) and the GI50 [24] was > 100 µM (inactive). The GI50 [25] was > 100 µM (inactive), the GI50 [26] was 22 µM (inactive) and the GI50 [27] was > 100 µM (inactive). For the same molecule, the GI50 [28] was > 100 µM (inactive), the GI50 [29] was 94.2 µM (inactive) and the GI50 [30] was 69.5 µM (inactive). For the same molecule, the GI50 [31] was 31.2 µM (inactive), the GI50 [32] was > 100 µM (inactive) and the GI50 [33] was > 100 µM (inactive). For the same molecule, the GI50 [34] was > 100 µM (inactive), the GI50 [35] was > 100 µM (inactive) and the GI50 [36] was > 100 µM (inactive). For the same molecule, the GI50 [37] was > 100 µM (inactive), the GI50 [38] was 49.2 µM (inactive) and the GI50 [39] was 51.9 µM (inactive). The GI50 [40] was 92.9 µM (inactive), the GI50 [41] was > 100 µM (inactive) and the GI50 [42] was > 100 µM (inactive). The GI50 [43] was > 100 µM (inactive), the GI50 [44] was 68.1 µM (inactive) and the GI50 [45] was > 100 µM (inactive). For the same molecule, the GI50 [46] was 97.9 µM (inactive), the GI50 [47] was 85.1 µM (inactive) and the GI50 [48] was > 100 µM (inactive). For the same molecule, the GI50 [49] was > 100 µM (inactive), the GI50 [50] was > 100 µM (inactive) and the GI50 [51] was > 100 µM (inactive). For the same molecule, the GI50 [52] was > 100 µM (inactive) and the GI50 [53] was > 100 µM (inactive).

With COC(=O)c1cccc(COc2ccc([N+](=O)[O-])cc2Cl)c1 the GI50 [1] was > 100 µM (inactive), the GI50 [2] was 36.5 µM (inactive) and the GI50 [3] was 42.5 µM (inactive). For the same molecule, the GI50 [4] was 53.3 µM (inactive), the GI50 [5] was > 100 µM (inactive) and the GI50 [6] was 56 µM (inactive). For the same molecule, the GI50 [7] was 63.4 µM (inactive), the GI50 [54] was > 100 µM (inactive) and the GI50 [8] was > 100 µM (inactive). For the same molecule, the GI50 [9] was 37.4 µM (inactive), the GI50 [11] was > 100 µM (inactive) and the GI50 [12] was 70.5 µM. For the same molecule, the GI50 [14] was > 100 µM (inactive), the GI50 [15] was 44.5 µM (inactive) and the GI50 [16] was > 100 µM (inactive). For the same molecule, the GI50 [17] was 60.1 µM (inactive), the GI50 [18] was > 100 µM (inactive) and the GI50 [19] was 72.4 µM (inactive). The GI50 [20] was > 100 µM (inactive), the GI50 [21] was 85.5 µM (inactive) and the GI50 [22] was > 100 µM (inactive). The GI50 [23] was > 100 µM (inactive), the GI50 [24] was 82.8 µM (inactive) and the GI50 [25] was > 100 µM (inactive). For the same molecule, the GI50 [26] was > 100 µM (inactive), the GI50 [27] was > 100 µM (inactive) and the GI50 [28] was 43.2 µM (inactive). For the same molecule, the GI50 [29] was > 100 µM (inactive), the GI50 [30] was > 100 µM (inactive) and the GI50 [31] was 63.7 µM (inactive). For the same molecule, the GI50 [32] was > 100 µM (inactive), the GI50 [33] was 63.4 µM (inactive) and the GI50 [55] was 58.3 µM (inactive). For the same molecule, the GI50 [34] was > 100 µM (inactive), the GI50 [35] was > 100 µM (inactive) and the GI50 [36] was > 100 µM (inactive). For the same molecule, the GI50 [37] was 89.7 µM (inactive), the GI50 [38] was > 100 µM (inactive) and the GI50 [39] was > 100 µM (inactive). For the same molecule, the GI50 [40] was > 100 µM (inactive), the GI50 [41] was > 100 µM (inactive) and the GI50 [42] was > 100 µM (inactive). For the same molecule, the GI50 [56] was > 100 µM (inactive), the GI50 [43] was 51.1 µM (inactive) and the GI50 [57] was > 100 µM (inactive). The GI50 [44] was 49 µM (inactive), the GI50 [45] was > 100 µM (inactive) and the GI50 [46] was > 100 µM (inactive). For the same molecule, the GI50 [47] was > 100 µM (inactive), the GI50 [48] was > 100 µM (inactive) and the GI50 [49] was > 100 µM (inactive). The GI50 [50] was > 100 µM (inactive), the GI50 [51] was 83.2 µM (inactive) and the GI50 [52] was > 100 µM (inactive). The GI50 [58] was 43.4 µM (inactive) and the GI50 [53] was 98.9 µM (inactive).

In the case of CCOC(=O)c1cc(C2CCN(Cc3ccccc3)C2=O)c(C(=O)C(=[N+]=[N-])C(C)=O)[nH]1 (centres undefined), the GI50 [1] is reported as > 100 µM (inactive), the GI50 [2] is reported as > 100 µM (inactive) and the GI50 [3] is reported as > 100 µM (inactive). For the same molecule, the GI50 [5] was > 100 µM (inactive), the GI50 [6] was > 100 µM (inactive) and the GI50 [7] was > 100 µM (inactive). The GI50 [54] was > 100 µM (inactive), the GI50 [8] was > 100 µM (inactive) and the GI50 [9] was > 100 µM (inactive). For the same molecule, the GI50 [10] was > 100 µM (inactive), the GI50 [11] was > 100 µM (inactive) and the GI50 [12] was over 100 µM. The GI50 [13] was > 100 µM (inactive), the GI50 [14] was > 100 µM (inactive) and the GI50 [15] was > 100 µM (inactive). For the same molecule, the GI50 [16] was > 100 µM (inactive), the GI50 [17] was > 100 µM (inactive) and the GI50 [18] was > 100 µM (inactive). For the same molecule, the GI50 [19] was > 100 µM (inactive), the GI50 [20] was > 100 µM (inactive) and the GI50 [21] was > 100 µM (inactive). For the same molecule, the GI50 [22] was > 100 µM (inactive), the GI50 [23] was > 100 µM (inactive) and the GI50 [24] was > 100 µM (inactive). For the same molecule, the GI50 [25] was > 100 µM (inactive), the GI50 [26] was > 100 µM (inactive) and the GI50 [27] was > 100 µM (inactive). The GI50 [28] was > 100 µM (inactive), the GI50 [29] was > 100 µM (inactive) and the GI50 [30] was > 100 µM (inactive). The GI50 [32] was > 100 µM (inactive), the GI50 [33] was > 100 µM (inactive) and the GI50 [55] was > 100 µM (inactive). The GI50 [34] was > 100 µM (inactive), the GI50 [35] was > 100 µM (inactive) and the GI50 [36] was > 100 µM (inactive). For the same molecule, the GI50 [37] was > 100 µM (inactive), the GI50 [38] was > 100 µM (inactive) and the GI50 [39] was > 100 µM (inactive). For the same molecule, the GI50 [40] was > 100 µM (inactive), the GI50 [41] was > 100 µM (inactive) and the GI50 [42] was > 100 µM (inactive). The GI50 [56] was > 100 µM (inactive), the GI50 [43] was > 100 µM (inactive) and the GI50 [57] was > 100 µM (inactive). For the same molecule, the GI50 [44] was > 100 µM (inactive), the GI50 [45] was > 100 µM (inactive) and the GI50 [46] was > 100 µM (inactive). For the same molecule, the GI50 [47] was > 100 µM (inactive), the GI50 [48] was > 100 µM (inactive) and the GI50 [49] was > 100 µM (inactive). For the same molecule, the GI50 [51] was > 100 µM (inactive), the GI50 [52] was > 100 µM (inactive) and the GI50 [58] was > 100 µM (inactive). The GI50 [53] was > 100 µM (inactive).
